For orientation: AUC(0-inf) means total exposure, with the tail of the curve extrapolated. By bioavailability is commonly meant the share of a dose that reaches the circulation, judged against a reference dose that is usually intravenous. The low end stands for poor availability, the high end for good availability. The IC50 is the midpoint of a concentration-inhibition curve. One may read the half-life as the time needed for the level to fall by half in the phase considered. The low end stands for fast loss, the high end for slow loss.

Calls of active or inactive are those of the source.

This is an account of results in ChEMBL document CHEMBL5518238, “Structure-Activity Relationship (SAR) Studies of Novel Monovalent AR/AR-V7 Dual Degraders with Potent Efficacy against Advanced Prostate Cancer” (J Med Chem, 2024).

Series [1] addresses T1, Androgen receptor (Homo sapiens) (UniProt P10275).
T1 sequence (whole entry): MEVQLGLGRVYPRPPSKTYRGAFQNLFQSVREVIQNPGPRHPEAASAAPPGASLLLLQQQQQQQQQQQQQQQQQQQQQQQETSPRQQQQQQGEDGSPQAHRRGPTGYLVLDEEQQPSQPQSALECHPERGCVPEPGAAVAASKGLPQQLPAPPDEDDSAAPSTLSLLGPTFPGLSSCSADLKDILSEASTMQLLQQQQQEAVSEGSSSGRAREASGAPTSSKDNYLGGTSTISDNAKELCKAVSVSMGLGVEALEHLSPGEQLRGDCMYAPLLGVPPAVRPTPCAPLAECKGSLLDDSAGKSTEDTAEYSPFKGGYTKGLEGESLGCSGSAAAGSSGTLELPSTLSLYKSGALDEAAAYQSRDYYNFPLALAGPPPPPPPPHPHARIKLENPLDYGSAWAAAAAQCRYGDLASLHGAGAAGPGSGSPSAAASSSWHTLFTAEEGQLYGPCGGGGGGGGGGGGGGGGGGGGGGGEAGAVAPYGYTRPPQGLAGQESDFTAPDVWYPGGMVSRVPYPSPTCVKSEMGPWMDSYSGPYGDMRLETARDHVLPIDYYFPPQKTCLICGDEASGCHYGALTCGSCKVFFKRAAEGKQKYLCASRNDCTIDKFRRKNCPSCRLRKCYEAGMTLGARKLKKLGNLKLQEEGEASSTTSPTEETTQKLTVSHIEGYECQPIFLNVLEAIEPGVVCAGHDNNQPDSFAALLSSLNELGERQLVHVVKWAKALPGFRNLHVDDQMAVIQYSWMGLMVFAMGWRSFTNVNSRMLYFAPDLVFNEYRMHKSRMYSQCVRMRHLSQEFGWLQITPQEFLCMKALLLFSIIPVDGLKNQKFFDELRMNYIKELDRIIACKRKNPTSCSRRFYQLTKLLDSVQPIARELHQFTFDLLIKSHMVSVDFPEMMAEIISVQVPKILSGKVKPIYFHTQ
Put plainly: Induction of AR degradation in human LNCaP cells at 5 uM by Western blot analysis. The series is classed as cell-based. The settings on record: time <= 24.0 hrs, TDE = time-dependent effect.

The test system of series [2] is CWR22R. Put plainly: Downregulation of KLK3 mRNA expression in human 22Rv1 cells at 10 uM incubated for 24 hrs by qRT-PCR analysis. The series is classed as functional, cell-based. In general terms: Real-time PCR tracks product formation cycle by cycle.
A short description of series [3]: AUC (0 to infinity) in Sprague-Dawley rat at 5 mg/kg, iv by LC-MS/MS analysis. The series is classed as ADME, organism-based. Particulars: in vivo.
For series [4], the system named is CWR22R. Put plainly: Downregulation of AR mRNA expression in human 22Rv1 cells at 5 to 10 uM incubated for 12 hrs by qRT-PCR analysis. It counts as functional, cell-based. The settings on record: dose 5-10 µM.
Series [5] is described as follows: Oral bioavailability in Sprague-Dawley rat at 50 mg/kg by LC-MS/MS analysis. It counts as ADME, organism-based. Particulars: in vivo.
A further series concerns LNCaP. Put plainly: Antiproliferative activity against human LNCaP cells assessed as inhibition of cell growth incubated for 48 hrs by CCK-8 assay. It counts as functional, cell-based.
The test system of series [6] is CWR22R. Put plainly: Downregulation of SLC26A2 mRNA expression in human 22Rv1 cells at 10 uM incubated for 24 hrs by qRT-PCR analysis. It counts as functional, cell-based.
In series [7] the test system is CWR22R. Put plainly: Downregulation of NCAPD3 mRNA expression in human 22Rv1 cells at 10 uM incubated for 24 hrs by qRT-PCR analysis. The series is classed as functional, cell-based.
Series [8] in a line: Toxicity in NSG mouse xenografted with human 22Rv1 cells assessed as lung damage t at 30 mg/kg, IG administered once daily for 21 days by H and E staining based analysis. It counts as organism-based, CWR22R. Particulars: in vivo, po, 504 h, time 21 day. On the technique in general: Xenograft models place foreign cells or tissue in a host animal.
Series [9] is described as follows: Half life in Sprague-Dawley rat at 5 mg/kg, iv by LC-MS/MS analysis. Particulars: in vivo. It counts as ADME, organism-based.
Series [10] deals with CWR22R. Put plainly: Induction of apoptosis in human 22Rv1 cells assessed as effect on PARP1 level incubated for 24 hrs by Western blot analysis. The series is classed as functional, cell-based. The settings on record: dose <= 10.0 µM. A general note: A western blot detects proteins with antibodies after separation by electrophoresis.
For series [11], the system named is CWR22R. Put plainly: Induction of apoptosis in human 22Rv1 cells at 10 uM incubated for 24 hrs by Annexin V-FITC/PI staining based flow cytometric analysis (reference value: 3.70 %). It counts as functional.
Another series relates to DU-145. Put plainly: Antiproliferative activity against AR-negative human DU-145 cells assessed as inhibition of cell growth incubated for 48 hrs by CCK-8 assay. It counts as functional, cell-based. Particulars: DU-145, 48 h.
Series [12] addresses T1, Androgen receptor (Homo sapiens). Put plainly: Binding affinity to AR (unknown origin) assessed as thermal stabilization at 10 uM incubated for 2 hrs by CETSA analysis. It counts as cell-based. Particulars: 22Rv1.
Series [13] is described as follows: AUC (0 to infinity) in Sprague-Dawley rat at 50 mg/kg, po by LC-MS/MS analysis. It counts as ADME, organism-based. The settings on record: in vivo.
Series [14] addresses T1, Androgen receptor (Homo sapiens). Put plainly: Induction of AR degradation in human 22Rv1 cells at 20 uM incubated for 24 hrs in presence of Bortezomib by Western blot analysis. The series is classed as cell-based.
The subject of series [15] is CWR22R. Put plainly: Effect on MR level in human 22Rv1 at 2.5 to 20 uM incubated for 24 hrs by Western blot analysis. The series is classed as functional, cell-based. The settings on record: dose 2.5-20 µM.

Consider `CC1(C)C(=O)N(c2ccc(C#N)c(C(F)(F)F)c2)C(=O)N1CCNc1ccc(F)c2ncccc12`, for which the Activity result in [1] is “Tde”; in series [8], “Non-Toxic”; in the series on CWR22R [10] it was “Dose-Dependent Effect”; with CWR22R [11], 30.91%. Besides, the outcome (in the series on CWR22R [2]; with CWR22R [4]; in the series with CWR22R [6]; with CWR22R [7]; in series [14]; with CWR22R [15]) was Active. For the same compound, the total exposure AUC(0-inf) in series [3] is 2920 ng·h/mL; in series [13], 3470 ng·h/mL. In series [5], the bioavailability stood at 11.9%. Besides, the IC50 with LNCaP was 1.4 µM; in the series on DU-145, more than 50 µM. The same compound had a half-life in series [9] of 1.4 h. Further, the outcome in series [12] was inactive.
